Test results from BindingDB's records for doi:10.3109/14756366.2012.712516 (Dumlupinar University, 2013).

Tests used:
Carbonic anhydrase 1 [1] = biological target: T1, Carbonic anhydrase 1 (Homo sapiens, UniProt P00915); assay: CA Activity Assay
Carbonic anhydrase 2 [2] = biological target: T2, Carbonic anhydrase 2 (Homo sapiens, UniProt P00918); assay: CA Activity Assay
Carbonic anhydrase 1 [3] = biological target: T1, Carbonic anhydrase 1; assay: Esterase Activity Assay; conditions: pH 7.4
Method: (§1) The enzymatic reaction, in a total volume of 3.0 mL, contained 1.4 mL of 0.05 M Tris-SO4 buffer (pH 7.4), 1 mL of 3 mM 4-nitrophenylacetate, 0.5 mL H2O and 0.1 mL enzyme solution.

Carbonic anhydrase 2 [4] = biological target: T2, Carbonic anhydrase 2; assay: Esterase Activity Assay; conditions: pH 7.4
Method: as §1

Carbonic anhydrase 1 [5] = biological target: T1, Carbonic anhydrase 1; assay: Hydratase Activity Assay
Carbonic anhydrase 2 [6] = biological target: T2, Carbonic anhydrase 2; assay: Hydratase Activity Assay

T1 sequence (P00915 whole entry): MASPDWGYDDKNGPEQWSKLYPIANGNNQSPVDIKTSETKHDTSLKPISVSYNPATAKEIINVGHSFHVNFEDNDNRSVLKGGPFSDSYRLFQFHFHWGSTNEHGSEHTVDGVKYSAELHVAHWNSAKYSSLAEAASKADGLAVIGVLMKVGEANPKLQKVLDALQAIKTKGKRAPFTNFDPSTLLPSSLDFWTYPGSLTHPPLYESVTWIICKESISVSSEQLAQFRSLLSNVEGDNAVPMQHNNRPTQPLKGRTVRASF

- Ki (Carbonic anhydrase 1 [1]): 1400 nM
- Ki (Carbonic anhydrase 2 [2]): 3000 nM
- IC50 (Carbonic anhydrase 1 [3]): 1400 nM
- IC50 (Carbonic anhydrase 2 [4]): 3000 nM
- IC50 (Carbonic anhydrase 1 [5]): 1200 nM
- IC50 (Carbonic anhydrase 2 [6]): 400 nM
Compound: NS(=O)(=O)c1nnc(NC(=O)c2nn(-c3cccc([N+](=O)[O-])c3)c(-c3ccccc3)c2C(=O)c2ccccc2)s1 [N-[5-(aminosulfonyl)-1,3,4-thiadiazol-2-yl]-4-benzoyl-1-(3-nitrophenyl)-5-phenyl-1H-pyrazole-3-carboxamide (1)]
